Read-outs that look alike come from different tables or passages of the source.
Legend:
L-1210 Lymphoid Leukemia = test: NCI screen, L-1210 Lymphoid Leukemia, subcutaneous (summary); type: in vivo, Mouse
Excerpt: The activity of the compound has been evaluated by experiments carried out under the auspices of the Division of Cancer Treatment, National Cancer Institute, employing techniques considered to be reliable indicators of chemotherapeutic utility in the treatment of forms of cancer in human patients. The details of the methodology employed in the reported experiments may be determined with reference to established NCI screening methods. In the experiments conducted by the NCI, evaluation of activity is made on the basis of appropriate parameters, such as median survival time (MST) or change in average tumor diameter (CATD)in ocular micrometer units (OMU).

[1] = Blood compatibility testing, canine; conditions: 50 mg/ml, 1:1
[2] = set-up: species or system human
Excerpt: Further studies were done using heparinized plasma (two additional human donors) and with EDTA plasma (one donor). […] Human EDTA plasma was compatible with drug at a 1:32 drug/plasma ratio.

With `CN(C)CCN1C(=O)c2cccc3cc(N)cc(c23)C1=O` [Example 9, 1H-Benz[de]isoquinoline-1,3(2H)-dione, 5-amino-2-[2-(dimethylamino)ethyl]] the “Table II evaluation” value (L-1210 Lymphoid Leukemia; median survival time, 16 tests, full wrapped cell: Activity substantially greater than the minimal) was “Activity”, the “Antitumor activity in words” value (L-1210 Lymphoid Leukemia; s.c. implanted L1210) was “active” and the blood compatibility ([1]; canine heparinized plasma) was “compatibility”. The blood compatibility ([1]; canine serum) was “compatibility” and the blood compatibility [2] was “compatible”.

From patent publication US5183821A, “Method for treating leukemias using N-(2-dimethylaminoethyl)-3-amino-1,8-naphthalimide for treating leukemias and solid tumors” (priority 1991, dated 1993)
